The assay has as its target Human immunodeficiency virus type 1 protease (Human immunodeficiency virus 1, UniProt Q72874). The assay can be described thus: Inhibition of HIV protease. The format is functional.

`CC(C)(C)OC(=O)N[C@@H](Cc1ccccc1)[C@@H](O)C[C@@H](Cc1ccccc1)C(=O)NC1c2ccccc2C[C@H]1C(N)=O` (some centres not stated) registered an IC50 of 1.8 nM.
The same measure for `CC(C)(C)OC(=O)N[C@@H](Cc1ccccc1)[C@@H](O)C[C@@H](Cc1ccccc1)C(=O)N[C@H]1CCc2ccccc21`: 21 nM; for `CC(C)(C)OC(=O)N[C@@H](Cc1ccccc1)[C@@H](O)C[C@@H](Cc1ccccc1)C(=O)NC1CCCc2ccccc21` (some centres not stated): 16 nM.
The same measure for `CC(C)(C)OC(=O)N[C@@H](Cc1ccccc1)[C@@H](O)C[C@@H](Cc1ccccc1)C(=O)NC1c2ccccc2[C@@H](N)[C@H]1O` (some centres not stated): 1.9 nM.
The compound `CC(C)(C)OC(=O)N[C@@H](Cc1ccccc1)[C@@H](O)C[C@@H](Cc1ccccc1)C(=O)NC1Cc2ccccc21` (some centres not stated) returned a half-maximal inhibitory concentration (IC50) of 22 nM.
The value for `CC(C)(C)OC(=O)N[C@@H](Cc1ccccc1)[C@@H](O)C[C@@H](Cc1ccccc1)C(=O)N[C@H]1c2ccccc2C[C@H]1O` was 0.3 nM; that for `CC(C)(C)OC(=O)N[C@@H](Cc1ccccc1)[C@@H](O)C[C@@H](Cc1ccccc1)C(=O)N[C@@H]1CCc2ccccc21` was 19 nM.
For `CC(C)(C)OC(=O)N[C@@H](Cc1ccccc1)[C@@H](O)C[C@@H](Cc1ccccc1)C(=O)N[C@H]1c2ccccc2[C@@H](O)[C@H]1O`, the IC50 is 0.1 nM.
In turn, `CC(C)(C)OC(=O)N[C@@H](Cc1ccccc1)[C@@H](O)C[C@@H](Cc1ccccc1)C(=O)NCCc1ccccc1` yielded an IC50 of 2800 nM.
`CC(C)(C)OC(=O)N[C@@H](Cc1ccccc1)[C@@H](O)C[C@@H](Cc1ccccc1)C(=O)NC1Cc2ccccc2C1` showed an IC50 of 130 nM.
`CC(C)(C)OC(=O)N[C@@H](Cc1ccccc1)[C@@H](O)C[C@@H](Cc1ccccc1)C(=O)N[C@H]1c2ccccc2C[C@@H]1O` (stereo in doubt; 8) returned an IC50 of 259 nM.
The value for `CC(C)(C)OC(=O)N[C@@H](Cc1ccccc1)[C@@H](O)C[C@@H](Cc1ccccc1)C(=O)N[C@H]1c2ccccc2C[C@@H]1O` (stereo in doubt; 10) was 229 nM.

The term IC50 denotes the concentration that gives 50% inhibition. The low end stands for greater potency, the high end for weaker potency.

These data come from ChEMBL document CHEMBL1125637, “Benzocycloalkyl amines as novel C-termini for HIV protease inhibitors” (J Med Chem, 1991).
